≈ marks a conversion by molar mass, not a printed value. Read-outs that look alike come from different tables or passages of the source.
Key:
[1] = test system: KB cells (human nasopharyngeal cells); assay: In vitro antineoplastic test on KB cells (MTT, 3 days); format: cell-based; conditions: 72 h
Experimental: In vitro antineoplastic test on KB cells (human nasopharyngeal cells):
1.25×10^3 (0.1 ml) of KB cells suspended in a RPMI 1640 medium (a product of Nissui Seiyaku Co., Ltd.) containing 20% of bovine fetus serum, penicillin (100 units/ml), streptomycin (100 μg/ml), mercaptoethanol (5×10^-5 M) and sodium pyruvate (1 mM) were placed in each hole of a 96-hole flat-bottom microplate and cultured in an incubator containing 5% of carbon dioxide at 37° C. for one day.
This concentration was the maximum one, which was subjected to two-fold serial dilution with 0.1% bovine fetus serum RPMI 1640 culture liquid containing 0.5% of dimethyl sulfoxide. It was added to the KB cells in each hole of the above-described culture plate in an amount of 0.1 ml and cultured in an incubator containing 5% of carbon dioxide at 37° C. for three days.
After the completion of the culture, 0.05 ml of MTT [3-(4,5-dimethylthiazol-2-yl)-2,5-diphenyltetrazolium bromide] solution (3.3 mg/ml) was added to each hole and the culture was conducted for an additional 1 h. The supernatant liquid was removed from each hole by suction and a formazan thus formed was dissolved in 0.1 ml of dimethyl sulfoxide. The absorbance at 540 nm was determined with a microplate reader to use as an index of a viable count. A percentage inhibition was calculated according to the following formula and the concentration of the test compound for 50% inhibition (IC50) was determined.
Percentage inhibition (%)=(C-T)/C×100
T: absorbance of the hole containing the test compound
C: absorbance of the hole containing no test compound

[2] = test system: colon 38 (cancer of the colon of mice); format: in vivo, mice (BDF1, female); conditions: once a day for 8 days, 21 days after transplantation
Experimental: In vivo antineoplastic test on colon 38 (cancer of the colon of mice):
About 75 mg of colon 38 was subcutaneously transplanted in the side of the body of each of 7-week old female BDF1 mice. A compound of the present invention was suspended in 0.5% methylcellulose and oral administration of a predetermined amount of the suspension once a day was started on the next day and continued for 8 days. 0.5% methylcellulose was orally given to a control group. The control group consisted of 10 mice and the group to which the medicine was given consisted of 6 mice.
21 days after the transplantation, the tumors were taken out and weighed. The tumor growth inhibition ratio of the group to which the medicine was given to the control group was determined according to the following formula:
Growth inhibition ratio (%) (C-T)/C×100
T: average weight of tumor in the group to which the test compound was given
C: average weight of tumor in the control group

BDF1 mice = test system: BDF1 mice; parameters: species or system female); conditions: mouse, in vivo, 1651 mg/kg
Experimental: EXPERIMENTAL EXAMPLE 3: Toxicity tests
No mouse died, even with 1651 mg/kg of the compound.

[3] = KB cells in vitro, 37° C. for three days, MTT, read-out: IC50

SMILES	IC50 [1, 3] [µg/mL]	also measured
COc1ccc(S(=O)(=O)Nc2cccnc2Nc2ccc(O)cc2)cc1 [Example 6, N-[2-[(4-Hydroxyphenyl)amino]-3-pyridyl]-4-methoxybenzenesulfonamide]	0.42 (≈ 1.13 µM)	Growth inhibition ratio ([2]; 100 mg/kg/day oral): 98%; viability observed for 7 days after the administration (BDF1 mice): No mouse died
COc1ccc(S(=O)(=O)Nc2cccnc2Nc2ccncc2)cc1 [Example 7, 4-Methoxy-N-[2-[(4-pyridyl)amino]-3-pyridyl]benzenesulfonamide]	1 (≈ 2.81 µM)	Growth inhibition ratio ([2]; 50 mg/kg/day oral): 61%
Cc1ccc(S(=O)(=O)Nc2cccnc2Nc2ccccc2)cc1 [Example 1, N-(2-Anilino-3-pyridyl)-p-toluenesulfonamide]	1.5 (≈ 4.42 µM)	Growth inhibition ratio ([2]; 100 mg/kg/day oral): 80%
CCc1ccc(S(=O)(=O)Nc2cccnc2Nc2ccccc2)cc1 [Example 2, N-(2-Anilino-3-pyridyl)-4-ethylbenzenesulfonamide]	1.7 (≈ 4.81 µM)	Growth inhibition ratio ([2]; 100 mg/kg/day oral): 69%
COc1ccc(Nc2ncccc2NS(=O)(=O)c2ccc(OC)cc2)cc1 [Example 4, 4-Methoxy-N-[2-[(4-methoxyphenyl)amino]-3-pyridyl]benzenesulfonamide]	1.9 (≈ 4.93 µM)	Growth inhibition ratio ([2]; 100 mg/kg/day oral): 99%; viability observed for 7 days after the administration (BDF1 mice): No mouse died
COc1ccc(S(=O)(=O)Nc2cccnc2Nc2ccc(OC(=O)c3ccccc3N)cc2)cc1 [Example 63, N-[2-[[4-(2-Aminobenzoyloxy)phenyl]amino]-3-pyridyl]-4-methoxybenzenesulfonamide]	0.2 (≈ 0.408 µM)	–
COc1ccc(S(=O)(=O)Nc2cccnc2Nc2ccccc2F)cc1 [Example 9, N-[2-[(2-Fluorophenyl)amino]-3-pyridyl]-4-methoxybenzenesulfonamide]	0.34 (≈ 0.911 µM)	–
COc1ccc(S(=O)(=O)Nc2ccccc2NC(C)=O)cc1 [Example 101, N-[2-(4-Methoxybenzenesulfonamido)phenyl]acetamide]	0.1 (≈ 0.312 µM)	–
Nc1ccc(S(=O)(=O)Nc2cccnc2Nc2ccccc2)cc1 [Example 21, 4-Amino-N-(2-anilino-3-pyridyl)benzenesulfonamide]	1.1 (≈ 3.23 µM)	–
COc1ccc(S(=O)(=O)Nc2ccccc2NC(=O)c2cccnc2C)cc1 [Example 70, N-[2-(4-Methoxybenzenesulfonamido)phenyl]-2-methylnicotinamide]	0.033 (≈ 0.083 µM)	Growth inhibition ratio ([2]; 50 mg/kg/day oral): 63%
COc1ccc(S(=O)(=O)Nc2cccnc2Nc2ccccc2)cc1 [Example 3, N-(2-Anilino-3-pyridyl)-4-methoxybenzenesulfonamide]	0.27 (≈ 0.76 µM)	Growth inhibition ratio ([2]; 100 mg/kg/day oral): 98%; viability observed for 7 days after the administration (BDF1 mice): No mouse died
COc1ccc(S(=O)(=O)Nc2ccccc2NC(=O)c2ccc(F)cc2Cl)cc1 [Example 94, 2-Chloro-4-fluoro-N-[2-(4-methoxybenzenesulfonamido)phenyl]benzamide]	0.064 (≈ 0.147 µM)	–
CCOc1ccc(S(=O)(=O)Nc2cccnc2Nc2ccccc2)cc1 [Example 27, N-(2-Anilino-3-pyridyl)-4-ethoxybenzenesulfonamide]	1.4 (≈ 3.79 µM)	–
COc1ccc(S(=O)(=O)Nc2ccccc2NC(=O)c2ccncc2C)cc1 [Example 72, N-[2-(4-Methoxybenzenesulfonamido)phenyl]-3-methylisonicotinamide]	0.012 (≈ 0.0302 µM)	–
CCOC(=O)c1ccc(Nc2ncccc2NS(=O)(=O)c2ccc(OC)cc2)cc1 [Example 37, Ethyl 4-[[3-(4-methoxybenzenesulfonamido)-2-pyridyl]amino]benzoate]	1.3 (≈ 3.04 µM)	–
COc1ccc(S(=O)(=O)Nc2ccccc2Nc2ccccn2)cc1 [Example 76, 4-Methoxy-N-[2-[(2-pyridyl)amino]phenyl]benzenesulfonamide]	0.13 (≈ 0.366 µM)	–
COc1ccc(S(=O)(=O)Nc2cccnc2Nc2ccc(OC(=O)N(C)C)cc2)cc1 [Example 52, N-[2-[(4-Dimethylcarbamoyloxyphenyl)amino]-3-pyridyl]-4-methoxybenzenesulfonamide]	–	IC50 ([1]; KB): 0.54 µg/mL (≈ 1.22 µM)
COc1ccc(S(=O)(=O)Nc2ccccc2NC(=O)c2ccco2)cc1 [Example 85, N-[2-(4-Methoxybenzenesulfonamido)phenyl]-2-furancarboxamide]	0.01 (≈ 0.0269 µM)	–

Reference: patent publication US5610320A, “Sulfonamide phenyl substituted compounds” (Eisai Co., Ltd., priority 1990, dated 1997)
